We go through 1 substance from US7741283B2, “Compositions and methods for inhibiting cell proliferation” (St. Louis University, priority 2003, dated 2010).

The subject of the test is Mv1Lu cells. The experiment in a line: Cell growth (cell number), Mv1Lu cells. It counts as cell-based, mink. The conditions noted are these: IGFBP-3 0.5 μg/ml, 4-day. On the procedure:
FIG. 6 depicts the effects of IGFBP-3 and TGF-β1 on DNA synthesis (A), cell growth (B) and PAI-1 expression (C) in Mv1Lu and PEA-C11 cells. (A,B) Cells were incubated with various concentrations of IGFBP-3 (a) or TGF-β1 (b) as indicated. DNA synthesis and cell growth were determined by measuring the [methyl-^3H] thymidine incorporation into cellular DNA after 18 hr incubation (A) and by counting cell number after a 4-day incubation (B), respectively. The [methyl-^3H] thymidine incorporation in cells treated without IGFBP-3 and TGF-β1 (29,170±1,657 and 59,947±7,692 cpm/well for Mv1Lu and PEA-C11 cells, respectively) were taken as 0% inhibition. […] Each data point is the mean±S.D. of quadruplicate determinations. […] Data are representative of eight similar experiments. (C) Cells were incubated with various concentrations of TGF-β1 as indicated. After 2 hr at 37° C., the PAI-1 expression was determined by Northern blot analysis. The expression of glyceraldehyde-3-phosphate dehydrogenase (G3PDH) was used as control. The relative levels of the transcripts were quantified by a Phospholmager. Data are representative of four similar experiments.
Cells were plated at a density of 1-2×10^4 cells/dish in DMEM containing 1% fetal calf serum. The cell number was counted every day or after a 3-day incubation using a hematocytometer. The assays were performed in quadruplicate.

“IGFBP-3: human insulin-like growth factor binding protein-3 expressed in E. Coli”: the “Inhibition of cell growth” value is recorded as approximately 70%.
